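Method: 48-hour compound exposure of cells in 96-well plates, five concentrations, linear interpolation of endpoints. The concentration for 50% growth inhibition is given as GI50. TGI denotes the concentration required for complete inhibition of growth.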
Experiments:
Test in all cases: growth of human tumour cells (NCI), 48 h
OVCAR-4 ovarian = system: OVCAR-4 ovarian
EKVX NSCLC = system: EKVX NSCLC
HT29 colon = system: HT29 colon
KM12 colon = system: KM12 colon
OVCAR-5 ovarian = system: OVCAR-5 ovarian
HOP-92 NSCLC = system: HOP-92 NSCLC
RPMI-8226 leukemia = system: RPMI-8226 leukemia
SK-MEL-5 melanoma = system: SK-MEL-5 melanoma
MALME-3M melanoma = system: MALME-3M melanoma
ACHN renal = system: ACHN renal
IGROV1 ovarian = system: IGROV1 ovarian
COLO 205 colon = system: COLO 205 colon
UACC-62 melanoma = system: UACC-62 melanoma
SW-620 colon = system: SW-620 colon
SK-MEL-2 melanoma = system: SK-MEL-2 melanoma
OVCAR-8 ovarian = system: OVCAR-8 ovarian
HCT-116 colon = system: HCT-116 colon
NCI-H226 lung = system: NCI-H226 lung
NCI-H522 lung = system: NCI-H522 lung
TK-10 renal = system: TK-10 renal
SK-MEL-28 melanoma = system: SK-MEL-28 melanoma
NCI-H23 lung = system: NCI-H23 lung
MDA-MB-231 breast = system: MDA-MB-231 breast
HCT-15 colon = system: HCT-15 colon
HL-60(TB) leukemia = system: HL-60(TB) leukemia
SNB-19 CNS = system: SNB-19 CNS
T-47D breast = system: T-47D breast
HCC-2998 colon = system: HCC-2998 colon
SNB-75 CNS = system: SNB-75 CNS
SF-268 CNS = system: SF-268 CNS
SR leukemia = system: SR leukemia
OVCAR-3 ovarian = system: OVCAR-3 ovarian
HS 578T breast = system: HS 578T breast
DU-145 prostate = system: DU-145 prostate
A549 NSCLC = system: A549 NSCLC
PC-3 prostate = system: PC-3 prostate
MCF7 breast = system: MCF7 breast
SN12C renal = system: SN12C renal
MDA-MB-435 = system: MDA-MB-435
A498 renal = system: A498 renal
UACC-257 melanoma = system: UACC-257 melanoma
SF-295 CNS = system: SF-295 CNS
MOLT-4 leukemia = system: MOLT-4 leukemia
SK-OV-3 ovarian = system: SK-OV-3 ovarian
CCRF-CEM leukemia = system: CCRF-CEM leukemia
K-562 leukemia = system: K-562 leukemia
M14 melanoma = system: M14 melanoma
RXF 393 renal = system: RXF 393 renal
LOX IMVI melanoma = system: LOX IMVI melanoma
UO-31 renal = system: UO-31 renal
NCI/ADR-RES ovarian = system: NCI/ADR-RES ovarian
CAKI-1 renal = system: CAKI-1 renal
HOP-62 NSCLC = system: HOP-62 NSCLC
U251 CNS = system: U251 CNS
SF-539 CNS = system: SF-539 CNS
786-0 renal = system: 786-0 renal
NCI-H460 lung = system: NCI-H460 lung
BT-549 breast = system: BT-549 breast

## COc1cc2c(cc1OC)[C@@H]1C(=O)c3ccc4c(c3O[C@@H]1CO2)C[C@H](C(C)C)O4
OVCAR-4 ovarian
  GI50: 795 nM
  TGI: > 100 µM
EKVX NSCLC
  GI50: 239 nM
  TGI: > 48.2 µM
HT29 colon
  GI50: 15.4 µM
  TGI: > 58.6 µM
KM12 colon
  GI50: 5.31 µM
  TGI: 26.1 µM
OVCAR-5 ovarian
  GI50: 29.1 µM
  TGI: > 100 µM
HOP-92 NSCLC
  GI50: 2040 nM
  TGI: 22.3 µM
RPMI-8226 leukemia
  GI50: 15.2 nM
  TGI: 9.08 µM
SK-MEL-5 melanoma
  GI50: 37.5 nM
  TGI: 12.9 µM
MALME-3M melanoma
  GI50: 5.56 µM
  TGI: 53.2 µM
ACHN renal
  GI50: 3.13 µM
  TGI: > 46.4 µM
IGROV1 ovarian
  GI50: 14.2 µM
  TGI: > 85.5 µM
COLO 205 colon
  GI50: 6.19 µM
  TGI: 20.8 µM
UACC-62 melanoma
  GI50: 9.24 µM
  TGI: > 100 µM
SW-620 colon
  GI50: 9.05 µM
  TGI: > 46.7 µM
SK-MEL-2 melanoma
  GI50: 18.5 µM
  TGI: 57 µM
OVCAR-8 ovarian
  GI50: 3.96 µM
  TGI: > 69.9 µM
HCT-116 colon
  GI50: 43.5 nM
  TGI: > 37.8 µM
NCI-H226 lung
  GI50: 8.89 µM
  TGI: > 100 µM
NCI-H522 lung
  GI50: 961 nM
TK-10 renal
  GI50: 5.37 µM
  TGI: > 49 µM
SK-MEL-28 melanoma
  GI50: 15.4 µM
  TGI: > 58.2 µM
NCI-H23 lung
  GI50: 41.6 nM
  TGI: > 38 µM
MDA-MB-231 breast
  GI50: 21.6 µM
  TGI: > 100 µM
HCT-15 colon
  GI50: 9.26 µM
  TGI: > 71 µM
HL-60(TB) leukemia
  GI50: 1510 nM
  TGI: > 23.8 µM
SNB-19 CNS
  GI50: 9.74 µM
  TGI: > 78.1 µM
T-47D breast
  GI50: 175 nM
  TGI: > 60.6 µM
HCC-2998 colon
  GI50: 4.09 µM
  TGI: > 61.6 µM
SNB-75 CNS
  GI50: 4.39 µM
  TGI: 23.8 µM
SF-268 CNS
  GI50: 11.7 µM
  TGI: > 62.2 µM
SR leukemia
  GI50: 1420 nM
  TGI: > 23.6 µM
OVCAR-3 ovarian
  GI50: 7.81 µM
  TGI: > 41.1 µM
HS 578T breast
  GI50: 8.15 µM
  TGI: > 46.6 µM
DU-145 prostate
  GI50: 14.5 µM
  TGI: > 100 µM
A549 NSCLC
  GI50: 759 nM
  TGI: > 57.8 µM
PC-3 prostate
  GI50: 1980 nM
  TGI: > 30.5 µM
MCF7 breast
  GI50: 2660 nM
  TGI: > 52.2 µM
SN12C renal
  GI50: 10.6 µM
  TGI: > 76.8 µM
MDA-MB-435
  GI50: 4.06 µM
  TGI: > 36.7 µM
A498 renal
  GI50: 661 nM
  TGI: > 31 µM
UACC-257 melanoma
  GI50: 4.19 µM
  TGI: > 57.7 µM
SF-295 CNS
  GI50: 294 nM
MOLT-4 leukemia
  GI50: 6.81 µM
  TGI: > 69.2 µM
SK-OV-3 ovarian
  GI50: 14.4 µM
  TGI: > 81.8 µM
CCRF-CEM leukemia
  GI50: 5.41 µM
  TGI: > 100 µM
K-562 leukemia
  GI50: 521 nM
  TGI: > 41.4 µM
M14 melanoma
  GI50: 7.86 µM
  TGI: > 59.4 µM
RXF 393 renal
  GI50: 16.4 µM
  TGI: > 76.9 µM
LOX IMVI melanoma
  GI50: 264 nM
UO-31 renal
  GI50: 3.75 µM
  TGI: 97.9 µM
NCI/ADR-RES ovarian
  GI50: 248 nM
  TGI: > 29.1 µM
CAKI-1 renal
  GI50: 4.41 µM
  TGI: > 47.4 µM
HOP-62 NSCLC
  GI50: 9.23 µM
  TGI: > 60.6 µM
U251 CNS
  GI50: 4.57 µM
  TGI: > 38.2 µM
SF-539 CNS
  GI50: 15 µM
  TGI: > 53.4 µM
786-0 renal
  GI50: 5.6 µM
  TGI: > 79.8 µM
NCI-H460 lung
  GI50: 4.33 µM
  TGI: 45.8 µM
BT-549 breast
  GI50: 279 nM
  TGI: 20.8 µM
